{"source": "patent US8946203B2", "about": "“Benzodioxane inhibitors of leukotriene production” (Boehringer Ingelheim International GmbH, priority 2012, dated 2015)", "note": "pIC50: −log10 of the molar value. Counter-ions that a name gives are not always drawn.", "data": [{"target": "T1, human LTA4 hydrolase (Homo sapiens, UniProt P09960)", "T1 sequence (P09960 1-611)": "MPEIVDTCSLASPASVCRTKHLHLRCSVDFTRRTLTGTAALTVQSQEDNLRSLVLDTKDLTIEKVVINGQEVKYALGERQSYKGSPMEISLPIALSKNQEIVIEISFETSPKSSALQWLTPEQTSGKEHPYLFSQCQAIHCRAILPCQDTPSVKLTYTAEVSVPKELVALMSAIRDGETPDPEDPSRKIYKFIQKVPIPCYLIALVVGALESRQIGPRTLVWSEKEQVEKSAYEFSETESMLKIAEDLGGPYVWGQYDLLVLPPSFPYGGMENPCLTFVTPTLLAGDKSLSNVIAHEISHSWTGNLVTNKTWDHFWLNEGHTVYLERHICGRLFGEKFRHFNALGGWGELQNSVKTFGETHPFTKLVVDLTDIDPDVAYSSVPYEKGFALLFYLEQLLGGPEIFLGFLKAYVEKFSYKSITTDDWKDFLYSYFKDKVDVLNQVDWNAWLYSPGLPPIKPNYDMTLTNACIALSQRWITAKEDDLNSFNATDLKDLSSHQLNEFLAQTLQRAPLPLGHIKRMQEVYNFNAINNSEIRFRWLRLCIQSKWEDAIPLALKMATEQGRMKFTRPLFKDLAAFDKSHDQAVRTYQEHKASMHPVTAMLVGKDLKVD", "experiment": "LTA4H Enzyme assay (cleavage of Arg-AMC, fluorescence)", "assay_type": "biochemical", "conditions": "LTA4H Enzyme 1 nM, Arg-AMC substrate 50 μM, room temperature 1 h, fluorescence; read-out: IC50 values of LTA4H Enzyme assay", "outline": "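Aminomethylcoumarin release measured fluorimetrically (380/460 nm) after 1 h at room temperature. Reaction: 1 nM final enzyme, 50 μM final Arg-AMC and compound in Tris-HCl pH 7.5 with 100 mM KCl and 0.5% BSA.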", "values": [{"smiles": "O=C(O)[C@H]1CCN(Cc2ccc([C@H]3COc4ccccc4O3)cc2)C1", "note": "[Example 215, (3S)-1-{4-[(2S)-2,3-dihydro-1,4-benzodioxin-2-yl]benzyl}pyrrolidine-3-carboxylic acid]", "pIC50": 9.15}, {"smiles": "c1ccc2c(c1)OC[C@H](c1ccc(CN3CCC(c4nnn[nH]4)CC3)cc1)O2", "note": "[Example 216, 1-[(S)-4-(2,3-Dihydro-benzo[1,4]dioxin-2-yl)-benzyl]-4-(1H-tetrazol-5-yl)-piperidine]", "pIC50": 9.89}, {"smiles": "NC1CCN(Cc2ccc([C@H]3COc4ccccc4O3)cc2)CC1", "note": "[Example 217, 1-[(S)-4-(2,3-Dihydro-benzo[1,4]dioxin-2-yl)-benzyl]-piperidin-4-ylamine]", "pIC50": 8.64}, {"smiles": "O=C(CO)NC1CCN(Cc2ccc([C@H]3COc4ccccc4O3)cc2)CC1", "note": "[Example 218, N-{1-[(S)-4-(2,3-Dihydro-benzo[1,4]dioxin-2-yl)-benzyl]-piperidin-4-yl}-2-hydroxy-acetamide]", "pIC50": 9.43}, {"smiles": "CC(C)(O)C(=O)NC1CCN(Cc2ccc([C@H]3COc4cccnc4O3)cc2)CC1", "note": "[Example 221, N-(1-{4-[(3S)-2,3-dihydro[1,4]dioxino[2,3-b]pyridin-4-yl]benzyl}piperidin-4-yl)-2-hydroxy-2-methylpropanamide]", "pIC50": 9.80}, {"smiles": "O=C(CO)NC1CCN(Cc2ccc([C@H]3COc4cccnc4O3)cc2)CC1", "note": "[Example 222, N-(1-{4-[(3S)-2,3-dihydro[1,4]dioxino[2,3-b]pyridin-3-yl]benzyl}piperidin-4-yl)-2-hydroxyacetamide]", "pIC50": 9.85}, {"smiles": "O=C(NC1CCN(Cc2ccc([C@H]3COc4cccnc4O3)cc2)CC1)C1(O)CC1", "note": "[Example 223, N-(1-{4-[(3S)-2,3-dihydro[1,4]dioxino[2,3-b]pyridin-3-yl]benzyl}piperidin-4-yl)-1-hydroxycyclopropanecarboxamide]", "pIC50": 9.80}, {"smiles": "O=S1(=O)CCCN1C1CCN(Cc2ccc([C@H]3COc4ccccc4O3)cc2)CC1", "note": "[Example 224, 1-[(S)-4-(2,3-Dihydro-benzo[1,4]dioxin-2-yl)-benzyl]-4-(1,1-dioxo-1λ^6-isothiazolidin-2-yl)-piperidine]", "pIC50": 9.89}, {"smiles": "CC(c1ccc([C@H]2COc3ccccc3O2)cc1)N1CCCC1", "note": "(stereo partly drawn) [Example 225, 1-{1-[(S)-4-(2,3-dihydro-benzo[1,4]dioxin-2-yl)-phenyl]-ethyl}-pyrrolidine]", "pIC50": 8.28}, {"smiles": "CC(c1ccc([C@H]2COc3ccccc3O2)cc1)N1CCOCC1", "note": "(stereo partly drawn) [Example 226, 4-(1-{4-[(2S)-2,3-dihydro-1,4-benzodioxin-2-yl]phenyl}ethyl)morpholine]", "pIC50": 7.37}, {"smiles": "CC1(C(=O)O)CCN(Cc2ccc([C@H]3COc4cccnc4O3)cc2)CC1", "note": "[Example 228, 1-[(S)-4-(2,3-Dihydro-[1,4]dioxino[2,3-b]pyridin-3-yl)-benzyl]-4-methyl-piperidine-4-carboxylic acid formate salt]", "pIC50": 9.21}, {"smiles": "CC(C)(C(=O)O)C1CCN(Cc2ccc([C@H]3COc4cccnc4O3)cc2)CC1", "note": "[Example 230, 2-{1-[(S)-4-(2,3-Dihydro-[1,4]dioxino[2,3-b]pyridin-3-yl)-benzyl]-piperidin-4-yl}-2-methyl-propionic acid formate salt]", "pIC50": 8.91}, {"smiles": "O=C(O)c1ccc(CC2CCN(Cc3ccc([C@H]4COc5ccccc5O4)cc3)CC2)cc1", "note": "[Example 231, 4-{1-[(S)-4-(2,3-Dihydro-benzo[1,4]dioxin-2-yl)-benzyl]-piperidin-4-ylmethyl}-benzoic acid]", "pIC50": 9.54}, {"smiles": "O=C(O)c1ccc2c(c1)CN(Cc1ccc([C@H]3COc4ccccc4O3)cc1)CC2", "note": "[Example 232, 2-{4-[(2S)-2,3-dihydro-1,4-benzodioxin-2-yl]benzyl}-1,2,3,4-tetrahydroisoquinoline-7-carboxylic acid]", "pIC50": 8.56}, {"smiles": "O=C(O)c1ccc(C2CCN(Cc3ccc([C@H]4COc5ccccc5O4)cc3)CC2)cc1", "note": "[Example 233, 4-(1-{4-[(2S)-2,3-dihydro-1,4-benzodioxin-2-yl]benzyl}piperidin-4-yl)benzoic acid]", "pIC50": 9.66}]}]}
